Reference: US8796320B2, “1,3,4-Oxadiazole-2-carboxamide compound” (General Incorporated Association Pharma Valley Project …, priority 2009, dated 2014)
pIC50: −log10 of the molar value.

How the values were obtained:
[1] = system: STAT3; assay: STAT3 transcription inhibition test (reporter gene method); format: cell-based; conditions: Homo sapiens; compound at 100 μM; STAT3 reporter HeLa stable cell line, oncostatin M 10 ng/mL, 4 hours; read-out: STAT3 transcription inhibitory activity (%)
Description: The inhibition of STAT3 transcription was evaluated by using STAT3 reporter HeLa stable cell line (Panomics Inc., catalog No. RC0003), a cell line for the reporter gene method, and performing the following method according to the appendix included therein.
STAT3, reporter HeLa stable cell line subcultured and maintained in a Dulbecco's modified Eagle's medium (DMEM) containing 10% fetal bovine serum, 100 units/mL penicillin, and 100 μg/mL streptomycin was inoculated at a concentration of 40000 cells/well to a 96-well plate (white) and attached to the plate by overnight incubation at 37° C. under 5% CO2. After addition of each evaluation compound adjusted to various concentrations (adjusted with a DMSO solution), the cells were precultured for 1 hour. Then, oncostatin M for activating STAT3 was added at a final concentration 10 ng/mL, and the cells were further cultured at 37° C. under 5% CO2 for 4 hours. Luciferase activity derived from the cells was determined using Steady-Glo Luciferase Assay System (Promega Corp.), and STAT3 transcriptional activity scores were calculated according to the following formula: STAT3 transcriptional activity score (%)=100×(Lchem−L0)/(LDMSO−L0) • L0: luminescence intensity obtained without stimulation with oncostatin M • Lchem: luminescence intensity obtained by the addition of a test sample • LDMSO: luminescence intensity obtained by the addition of only a solvent for dissolving a test sample
The test results were indicated in the rate of inhibition of STAT3 transcription by each compound at a concentration of 100 μM.

[2] = system: human lymphoma SCC-3 cells; assay: Evaluation using human lymphoma-transplanted nude mice; format: in vivo, nude mouse; conditions: 80 mg/kg orally once a day for 5 days, p < 0.05
Description: 1×10^6 human lymphoma SCC-3 cells (containing Matrigel) were subcutaneously transplanted to the flank part of each 6-week-old male nude mouse (BALB/cA-nu/nu, CLEA Japan, Inc.). After the transplantation, the tumor volumes [major axis (mm) and minor axis (mm)] of the SCC-3 cancer-bearing mice were measured using an electronic vernier caliper (CD-10, Mitutoyo Corp.), and tumor volumes [mm^3: (major axis)×(minor axis)^2/2] were calculated. SCC-3 cancer-bearing mice whose tumor volume reached 50 to 300 mm^3 were selected and divided based on the tumor volumes into groups each containing 5 individuals. A test compound was suspended in a 0.5% methylcellulose solution and orally administered at a dose of 0.01 mL/g body weight once a day for 5 days (Day 0 (administration initiation day) to Day 4). To a control group, none was administered. The tumor volumes of the SCC-3 cancer-bearing mice were measured every day from the initiation of test compound administration to evaluate antitumor effect. The antitumor effect was assessed by calculating T/C (%) values according to the following formula: • V: tumor volume on every assay day • V0: tumor volume on the administration initiation day (V/V0 of the test compound group)/(V/V0 of the control group)×100
Validity determination criteria for this system adopted the method of Inaba, et al. (Cancer, 1989, 64, 1577-1582).

[3] = system: Human lymphoma SCC-3 cells; assay: SCC-3 cell growth inhibition test (MTT method); format: cell-based; conditions: 72-hour culture
Description: Human lymphoma SCC-3 cells purchased from Japan Health Sciences Foundation were cultured for […] at a density of 5000 cells/well in a 96-well plate with RPMI1640 (Sigma-Aldrich Corp.) containing 10% fetal bovine serum (FBS; GIBCO) as a culture medium.
Simultaneously with cell inoculation, each test compound diluted to various concentrations with an RPMI medium was added to each well. After 72-hour culture, cell growth inhibitory activity was determined by the MTT method (J. Immunol. Methods, 1993, 65, 581-593) using a microplate reader (NJ-2300, BioTek Instruments, Inc.).
The test results were indicated in a concentration (IC50) at which 50% cell growth was inhibited.

[4] = system: MDA-MB-468; assay: MDA-MB-468 cell growth inhibitory activity; format: cell-based; conditions: Homo sapiens; compound at 20 μM; MDA-MB-468, 72 hours
Description: MDA-MB-468 diluted with phenol red-free DMEM/F-12 (GIBCO; 10% FBS, 20 units/ml penicillin/streptomycin) was inoculated at a concentration of 2000 cells/well to a 96-well plate (Greiner Bio-One) and cultured overnight at 37° C. in the presence of 5% CO2. Then, a test sample solution (containing 2 (v/v)% DMSO) adjusted to 10 μM was added thereto at a concentration of 10 μL/well and contacted with the cells at 37° C. for 72 hours in the presence of 5% CO2. Each well was washed three times with a medium. Then, after addition of 100 μL/well of a medium and 20 μL/well of CellTiter 96 AQueous, One Solution Reagent (Promega Corp.), the cells were incubated at 37° C. for 2 hours in the presence of 5% CO2. Absorbance at 495 nm was measured using Multiplate reader (Molecular Devices, Inc.), and the rate of inhibition of cell growth was calculated according to the following formula: Rate of inhibition of cell growth (%)=100−100×(Abschem−bkgd)/(AbsDMSO−bkgd) • Abschem: absorbance obtained by the addition of a test sample • AbsDMSO: absorbance obtained by the addition of only a solvent for test sample dissolution • bkgd: absorbance obtained by the addition of CellTiter 96 AQueous One Solution Reagent to a medium for cell culture
The test results were indicated in the rate of inhibition of cell growth by each compound at a concentration of 20 μM.

pIC50 [3] | SMILES | inhibition at 100 µM [1] [%] | T/C (%) ([2]; day 11 after administration) | T/C (%) ([2]; day 6 after administration) | T/C (%) ([2]; day 18 after administration) | inhibition at 20 µM [4] [%]
– | CC(C)(C)c1ccc(-c2cccc(C(=O)Nc3nnc(-c4ccco4)o3)c2)cc1 [Compound Ia-14, 4′-tert-Butyl-N-[5-(2-furyl)-1,3,4-oxadiazol-2-yl]-3-biphenylcarboxamide] | 57 | 57 | – | – | –
– | CCCCOC(=O)c1ccc(-c2cccc(C(=O)Nc3nnc(-c4ccco4)o3)c2)cc1 [Compound Ia-23, 4′-n-Butoxycarbonyl-N-[5-(2-furyl)-1,3,4-oxadiazol-2-yl]-3-biphenylcarboxamide] | – | – | 55 | – | –
6.28 | O=C(Nc1nnc(-c2ccco2)o1)c1cc(-c2ccccc2)nc2nc(N3CCCCC3)sc12 [Compound Ib-1, N-[5-(2-Furyl)-1,3,4-oxadiazol-2-yl]-5-phenyl-2-piperidino-7-thiazolo[4,5-b]pyridinecarboxamide] | > 100 | – | – | 52 | 96
